How the values were obtained:
[1] = tested on: GM1 production in Jurkat cells; assay: cells; assay type: cell-based; settings: Homo sapiens, Jurkat, 72 h
[2] = molecular target: T1, glucosylceramide synthase (GCS) (Homo sapiens, UniProt Q16739); assay: GCS enzyme inhibition assay (A549 cell lysate, NBD C6-ceramide, HPLC fluorescence); assay type: biochemical; settings: inhibitory activity against GCS, 37° C., 90 minutes
T1 construct: The obtained supernatant was used; host or cells: A549 cells (lysate supernatant after sonication)
T1 sequence (Q16739 1-394): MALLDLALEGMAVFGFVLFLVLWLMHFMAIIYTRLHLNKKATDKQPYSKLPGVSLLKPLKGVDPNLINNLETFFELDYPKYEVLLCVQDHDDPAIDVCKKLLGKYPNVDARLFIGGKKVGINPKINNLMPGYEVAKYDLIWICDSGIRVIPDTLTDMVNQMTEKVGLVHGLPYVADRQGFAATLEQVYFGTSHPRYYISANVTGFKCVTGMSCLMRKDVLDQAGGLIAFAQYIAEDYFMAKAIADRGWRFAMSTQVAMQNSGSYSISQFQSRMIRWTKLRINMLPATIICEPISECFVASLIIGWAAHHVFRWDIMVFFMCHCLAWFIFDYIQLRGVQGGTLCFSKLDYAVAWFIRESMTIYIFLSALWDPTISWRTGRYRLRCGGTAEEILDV
Outline: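 Percent GCS activity was derived from the GlcCer share of Cer plus GlcCer areas, scaled from ibiglustat (0%) to DMSO (100%). Enzyme came from sonicated A549 lysate in 50 mM HEPES pH 7.3; 90 min incubation at 37° C, chloroform/methanol stop and extraction.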

| SMILES | IC50 [1] | IC50 [2] |
| --- | --- | --- |
| CC1(C)COc2cc(-c3ccc(OCC4CC4)nc3)ccc2C1NC(=O)O[C@@H]1CN2CCC1CC2 (stereo partly drawn) [Example 182, (S)-quinuclidin-3-yl (7-(6-(cyclopropylmethoxy)pyridin-3-yl)-3,3-dimethylchroman-4-yl)carbamate] | 0.79 nM | 0.25 nM |
| N#Cc1cccc(-c2ccc3c(c2)OCCC3NC(=O)O[C@@H]2CN3CCC2CC3)c1 (stereo partly drawn) [Example 39, (S)-quinuclidin-3-yl (7-(3-cyanophenyl)chroman-4-yl)carbamate] | 7.73 nM | 1.82 nM |
| COc1ccc(-c2ccc3c(c2)OCC(C)(C)C3NC(=O)O[C@@H]2CN3CCC2CC3)cc1OC (stereo partly drawn) [Example 128, (S)-quinuclidin-3-yl (7-(3,4-dimethoxyphenyl)-3,3-dimethylchroman-4-yl)carbamate] | 23.2 nM | 2.84 nM |
| O=C(NC1CCOc2cc(-c3ccc(OC(F)F)cc3)ccc21)O[C@@H]1CN2CCC1CC2 (stereo partly drawn) [Example 32, (S)-quinuclidin-3-yl (7-(4-(difluoromethoxy)phenyl)chroman-4-yl)carbamate] | 48.6 nM | 3.34 nM |
| CC(C)COc1ccc(-c2cc3c(cc2F)C(NC(=O)O[C@@H]2CN4CCC2CC4)C(C)(C)CO3)cc1 (stereo partly drawn) [Example 347, (S)-quinuclidin-3-yl (6-fluoro-7-(4-isobutoxyphenyl)-3,3-dimethylchroman-4-yl)carbamate] | 0.02 nM | 0.23 nM |
| CCc1ccc(-c2cc3c(cc2F)C(NC(=O)O[C@@H]2CN4CCC2CC4)C(C)(C)CO3)cc1 (stereo partly drawn) [Example 334, (S)-quinuclidin-3-yl (7-(4-ethylphenyl)-6-fluoro-3,3-dimethylchroman-4-yl)carbamate] | 0.4 nM | 0.33 nM |
| Cc1cncc(-c2ccc3c(c2)OCC(C)(C)C3NC(=O)O[C@@H]2CN3CCC2CC3)c1 (stereo partly drawn) [Example 221, (S)-quinuclidin-3-yl (3,3-dimethyl-7-(5-methylpyridin-3-yl)chroman-4-yl)carbamate] | 2.8 nM | 0.74 nM |
| CC1(C)COc2cc(-c3ccc(OC(F)(F)F)cc3)ccc2C1NC(=O)O[C@@H]1CN2CCC1CC2 (stereo partly drawn) [Example 201, (S)-quinuclidin-3-yl (3,3-dimethyl-7-(4-(trifluoromethoxy)phenyl)chroman-4-yl)carbamate] | 1.12 nM | 0.41 nM |
| CC1(C)COc2cc(-c3cccc(Cl)c3Cl)ccc2C1NC(=O)O[C@@H]1CN2CCC1CC2 (stereo partly drawn) [Example 235, (S)-quinuclidin-3-yl (7-(2,3-dichlorophenyl)-3,3-dimethylchroman-4-yl)carbamate] | 7.1 nM | 0.75 nM |
| CC(C)c1cccc(-c2cc3c(cc2F)C(NC(=O)O[C@@H]2CN4CCC2CC4)C(C)(C)CO3)c1 (stereo partly drawn) [Example 339, (S)-quinuclidin-3-yl (6-fluoro-7-(3-isopropylphenyl)-3,3-dimethylchroman-4-yl)carbamate] | 0.2 nM | 0.61 nM |
| CC(C)(C)c1cccc(-c2ccc3c(c2)OCCC3NC(=O)O[C@@H]2CN3CCC2CC3)c1 (stereo partly drawn) [Example 25, (S)-quinuclidin-3-yl (7-(3-(tert-butyl)phenyl)chroman-4-yl)carbamate] | 1.07 nM | 0.65 nM |
| CN1C(=O)COc2ccc(-c3ccc4c(c3)OCCC4NC(=O)O[C@@H]3CN4CCC3CC4)cc21 (stereo partly drawn) [Example 74, (S)-quinuclidin-3-yl (7-(4-methyl-3-oxo-3,4-dihydro-2H-benzo[b][1,4]oxazin-6-yl)chroman-4-yl)carbamate] | 44.3 nM | 5.03 nM |
| CC1(C)COc2cc(-c3ccc4c(c3)OCO4)ccc2C1NC(=O)O[C@@H]1CN2CCC1CC2 (stereo partly drawn) [Example 249, (S)-quinuclidin-3-yl (7-(benzo[d][1,3]dioxol-5-yl)-3,3-dimethylchroman-4-yl)carbamate] | 4 nM | 0.39 nM |
| CCCCOc1cccc(F)c1-c1ccc2c(c1)OCC(C)(C)C2NC(=O)O[C@@H]1CN2CCC1CC2 (stereo partly drawn) [Example 143, (S)-quinuclidin-3-yl (7-(2-butoxy-6-fluorophenyl)-3,3-dimethylchroman-4-yl)carbamate] | 1.46 nM | 0.78 nM |
| COc1cccc(-c2ccc3c(c2)OCCC3NC(=O)O[C@@H]2CN3CCC2CC3)c1 (stereo partly drawn) [Example 18, (S)-quinuclidin-3-yl (7-(3-methoxyphenyl)chroman-4-yl)carbamate] | 6.98 nM | 1.54 nM |
| CC1(C)COc2cc(-c3ccc4c(c3)OC(F)(F)O4)ccc2C1NC(=O)O[C@@H]1CN2CCC1CC2 (stereo partly drawn) [Example 149, (S)-quinuclidin-3-yl (7-(2,2-difluorobenzo[d][1,3]dioxol-5-yl)-3,3-dimethylchroman-4-yl)carbamate] | 0.03 nM | 0.41 nM |
| CCc1cccc(-c2cc3c(cc2OC)C(NC(=O)O[C@@H]2CN4CCC2CC4)C(C)(C)CO3)c1 (stereo partly drawn) [Example 352, (S)-quinuclidin-3-yl (7-(3-ethylphenyl)-6-methoxy-3,3-dimethylchroman-4-yl)carbamate] | 2 nM | 0.38 nM |

| SMILES | IC50 [1] | IC50 [2] |
| --- | --- | --- |
| O=C(NC1CCOc2cc(-c3ccccc3Cl)ccc21)O[C@@H]1CN2CCC1CC2 (stereo partly drawn) [Example 10, (S)-quinuclidin-3-yl (7-(2-chlorophenyl)chroman-4-yl)carbamate] | 7.23 nM | 2.02 nM |
| CC1(C)COc2cc(-c3ccc(N4CCOCC4)c(Cl)c3)ccc2C1NC(=O)O[C@@H]1CN2CCC1CC2 (stereo partly drawn) [Example 205, (S)-quinuclidin-3-yl (7-(3-chloro-4-morpholinophenyl)-3,3-dimethylchroman-4-yl)carbamate] | 0.25 nM | 0.65 nM |
| O=C(NC1CCOc2cc(-c3ccc(F)c(F)c3F)ccc21)O[C@@H]1CN2CCC1CC2 (stereo partly drawn) [Example 30, (S)-quinuclidin-3-yl (7-(2,3,4-trifluorophenyl)chroman-4-yl)carbamate] | 48.2 nM | 3.92 nM |
| COc1cccc(-c2cc3c(cc2OC)C(NC(=O)O[C@@H]2CN4CCC2CC4)C(C)(C)CO3)c1 (stereo partly drawn) [Example 354, (S)-quinuclidin-3-yl (6-methoxy-7-(3-methoxyphenyl)-3,3-dimethylchroman-4-yl)carbamate] | 3.1 nM | 0.63 nM |
| COCOc1cccc(-c2ccc3c(c2)OCCC3NC(=O)O[C@@H]2CN3CCC2CC3)c1 (stereo partly drawn) [Example 6, (S)-quinuclidin-3-yl (7-(3-(methoxymethoxy)phenyl)chroman-4-yl)carbamate] | 7.18 nM | 0.67 nM |
| CC(C)c1ccc(-c2ccc3c(c2)OCCC3NC(=O)O[C@@H]2CN3CCC2CC3)cc1 (stereo partly drawn) [Example 24, (S)-quinuclidin-3-yl (7-(4-isopropylphenyl)chroman-4-yl)carbamate] | 10.7 nM | 4.88 nM |
| Cn1ncc2c(-c3ccc4c(c3)OCC(C)(C)C4NC(=O)O[C@@H]3CN4CCC3CC4)cccc21 (stereo partly drawn) [Example 159, (S)-quinuclidin-3-yl (3,3-dimethyl-7-(1-methyl-1H-indazol-4-yl)chroman-4-yl)carbamate] | 0.55 nM | 0.57 nM |
| Cc1ccc(-c2ccc3c(c2)OCC(C)(C)C3NC(=O)O[C@@H]2CN3CCC2CC3)cc1 (stereo partly drawn) [Example 269, (S)-quinuclidin-3-yl (3,3-dimethyl-7-(p-tolyl)chroman-4-yl)carbamate] | 1.9 nM | 0.66 nM |
| Cn1ncc2ccc(-c3ccc4c(c3)OCC(C)(C)C4NC(=O)O[C@@H]3CN4CCC3CC4)cc21 (stereo partly drawn) [Example 196, (S)-quinuclidin-3-yl (3,3-dimethyl-7-(1-methyl-1H-indazol-6-yl)chroman-4-yl)carbamate] | 6.13 nM | 1.25 nM |
| CC1(C)COc2cc(-c3ccc(C4CC4)nc3)ccc2C1NC(=O)O[C@@H]1CN2CCC1CC2 (stereo partly drawn) [Example 250, (S)-quinuclidin-3-yl (7-(6-cyclopropylpyridin-3-yl)-3,3-dimethylchroman-4-yl)carbamate] | 5.4 nM | 0.35 nM |
| CCCOc1c(C)cc(-c2ccc3c(c2)OCC(C)(C)C3NC(=O)O[C@@H]2CN3CCC2CC3)cc1C (stereo partly drawn) [Example 140, (S)-quinuclidin-3-yl (7-(3,5-dimethyl-4-propoxyphenyl)-3,3-dimethylchroman-4-yl)carbamate] | 0.15 nM | 0.88 nM |
| CC(C)(C)c1ccc(-c2ccc3c(c2)OCCC3NC(=O)O[C@@H]2CN3CCC2CC3)cc1 (stereo partly drawn) [Example 26, (S)-quinuclidin-3-yl (7-(4-(tert-butyl)phenyl)chroman-4-yl)carbamate] | 23.3 nM | 10.2 nM |
| CC1(C)COc2cc(-c3ccccc3)ccc2C1NC(=O)O[C@@H]1CN2CCC1CC2 (stereo partly drawn) [Example 264, (S)-quinuclidin-3-yl (3,3-dimethyl-7-phenylchroman-4-yl)carbamate] | 0.7 nM | 0.35 nM |
| CCOc1ccc(-c2ccc3c(c2)OCCC3NC(=O)O[C@@H]2CN3CCC2CC3)cc1 (stereo partly drawn) [Example 22, (S)-quinuclidin-3-yl (7-(4-ethoxyphenyl)chroman-4-yl)carbamate] | 34.2 nM | 4 nM |
| COc1cc(F)ccc1-c1ccc2c(c1)OCC(C)(C)C2NC(=O)O[C@@H]1CN2CCC1CC2 (stereo partly drawn) [Example 120, (S)-quinuclidin-3-yl (7-(4-fluoro-2-methoxyphenyl)-3,3-dimethylchroman-4-yl)carbamate] | 6.41 nM | 0.71 nM |
| CCOc1ccc(-c2ccc3c(c2)OCCC3(C)NC(=O)O[C@@H]2CN3CCC2CC3)cc1 (stereo partly drawn) [Example 302, (S)-quinuclidin-3-yl (7-(4-ethoxyphenyl)-4-methylchroman-4-yl)carbamate] | 2.6 nM | 0.8 nM |
